# Non-standard residues stand in square brackets, D forms with d. Residues, ends and D or L forms follow the SMILES beside them. No end group written: not given here. d2Nal = N[C@H](Cc1ccc2ccccc2c1)C(=O)O
# How the values were obtained:
# B2 receptor [1] = target: T1, B2 receptor (Cavia porcellus, UniProt O70526); assay: cell-based
# T1 sequence (O70526 1-372): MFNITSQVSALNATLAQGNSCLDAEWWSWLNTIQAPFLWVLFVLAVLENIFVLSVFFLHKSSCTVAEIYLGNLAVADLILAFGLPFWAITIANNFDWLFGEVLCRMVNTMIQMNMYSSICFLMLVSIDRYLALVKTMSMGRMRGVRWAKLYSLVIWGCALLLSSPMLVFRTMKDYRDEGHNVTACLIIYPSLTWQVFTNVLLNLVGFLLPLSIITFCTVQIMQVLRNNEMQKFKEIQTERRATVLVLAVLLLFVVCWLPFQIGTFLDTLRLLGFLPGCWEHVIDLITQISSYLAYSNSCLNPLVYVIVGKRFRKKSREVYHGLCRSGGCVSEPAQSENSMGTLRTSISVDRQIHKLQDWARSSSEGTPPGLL
# Text: (§1) Tissues were taken from New Zealand white rabbits (1.5–2.5 kg) and Dunken Hartley guinea pigs (250–350 g) of either sex, killed by stunning and exsanguination. Umbilical cords were taken from healthy women 22–40 years old after spontaneous delivery at term. The rabbit jugular vein (RbJV), the guinea pig ileum (GPI), two preparations containing B2 receptors, the rabbit aorta (RbA) (B1 receptor) and the human umbilical vein (HUV), a mixed preparation containing both B1 and B2 receptors^10, were used. Helical strips of RbJV treated with 1 μmol/L of captopril to avoid peptide degradation by the angiotensin-converting enzyme (ACE), alias kininase II were prepared according to Gaudreau et al.^11 Helical strips of RbA devoid of endothelium were prepared according to Furchgott and Bhadrakom^12. Longitudinal segments of GPI were prepared with the procedure described by Rang^13. Helical strips of HUV were prepared according to Gobeil et al.^10. The tissues were suspended in 10-ml organ baths containing warm (37EC), oxygenated (95% O2–5% CO2) Krebs solution of the following composition in mmol/L; NaCl: 118.1; KCl: 4.7; CaCl26H2O: 2.5; KH2PO4: 1.2; MgSO47H2O: 1.18; NaHCO3: 25.0 and D-Glucose: 5.5. The RbA and the HUV were stretched with an initial tension of 2 g, whereas the RbJV and the GPI were loaded with 0.5 g. Changes of tension produced by the various agents were measured with Grass isometric transducers (model FT 03C, Grass Instrument Co., Quincy, Mass.). […] Before testing the drugs, the tissues were allowed to equilibrate for 60–120 min during which time the tissues were repeatedly washed and the tension readjusted every 15 min.
# (§2) At the beginning of each experiment, a submaximal dose of bradykinin (BK) (9 nmol/L), was applied repeatedly on the RbJV, the GPI or the HUV to ensure that tissues responded with stable contractions. […] A similar protocol was used for the HUV.
# (§3) Repeated applications of a singl and double concentration of BK (on RbJV, GPI and HUV) and of desArg^9BK (RbA and HUV) were made in the absence and in presence of the various peptides to evaluate their apparent affinities as antagonists, in terms of pA2 (-log10 of the molar concentration of antagonist that reduces the effect of a double concentration of agonist to that of a single one)^14. The antagonists were applied 10 min before measuring the myotropic effects of either BK (the B2 receptor agonist) or desArg^9BK (the B1 receptor agonist). […] All kinin antagonists were initially applied to tissues at concentration of 10 μg/mL to measure their potential agonistic activities (α^E) in comparison with BK (in the B2 receptor preparations) or desArg^9BK (in the B1 receptor preparations).
# human B1 receptor = target: T2, human B1 receptor (Homo sapiens, UniProt P46663); assay: cell-based; conditions: for Human umbilical vein B1 receptor α^E: residual agonistic activity at 10 μg/mL
# T2 sequence (P46663 1-353): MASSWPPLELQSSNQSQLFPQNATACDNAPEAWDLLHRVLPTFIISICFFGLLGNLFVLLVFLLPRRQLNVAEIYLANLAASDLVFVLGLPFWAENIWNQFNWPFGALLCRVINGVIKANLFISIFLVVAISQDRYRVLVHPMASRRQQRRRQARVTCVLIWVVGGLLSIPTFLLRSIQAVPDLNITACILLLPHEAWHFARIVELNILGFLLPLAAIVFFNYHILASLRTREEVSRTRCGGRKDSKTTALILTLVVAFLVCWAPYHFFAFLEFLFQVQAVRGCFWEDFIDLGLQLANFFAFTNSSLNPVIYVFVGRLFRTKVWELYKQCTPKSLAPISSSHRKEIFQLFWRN
# Text: as §1, §2, §3
# B2 receptor [2] = target: T3, B2 receptor (Oryctolagus cuniculus, UniProt Q28642); assay: cell-based; conditions: residual agonistic activity at 10 μg/mL in comparison with BK
# T3 sequence (Q28642 1-367): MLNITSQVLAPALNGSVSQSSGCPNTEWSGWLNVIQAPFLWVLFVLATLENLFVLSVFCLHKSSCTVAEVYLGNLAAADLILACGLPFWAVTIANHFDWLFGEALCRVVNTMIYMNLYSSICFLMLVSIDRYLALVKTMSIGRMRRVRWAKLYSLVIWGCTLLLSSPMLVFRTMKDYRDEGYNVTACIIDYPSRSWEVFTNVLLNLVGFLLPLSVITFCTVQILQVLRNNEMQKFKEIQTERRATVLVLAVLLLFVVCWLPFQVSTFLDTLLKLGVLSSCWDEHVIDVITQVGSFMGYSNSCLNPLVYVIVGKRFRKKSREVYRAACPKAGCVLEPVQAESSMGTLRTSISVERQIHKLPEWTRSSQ
# Text: as §1, §2, §3
# B1 receptor = target: T4, B1 receptor (Oryctolagus cuniculus, UniProt P48748); assay: cell-based; conditions: for Rb.A. α^E: residual agonistic activity at 10 μg/mL in comparison with desArg9BK
# T4 sequence (P48748 1-352): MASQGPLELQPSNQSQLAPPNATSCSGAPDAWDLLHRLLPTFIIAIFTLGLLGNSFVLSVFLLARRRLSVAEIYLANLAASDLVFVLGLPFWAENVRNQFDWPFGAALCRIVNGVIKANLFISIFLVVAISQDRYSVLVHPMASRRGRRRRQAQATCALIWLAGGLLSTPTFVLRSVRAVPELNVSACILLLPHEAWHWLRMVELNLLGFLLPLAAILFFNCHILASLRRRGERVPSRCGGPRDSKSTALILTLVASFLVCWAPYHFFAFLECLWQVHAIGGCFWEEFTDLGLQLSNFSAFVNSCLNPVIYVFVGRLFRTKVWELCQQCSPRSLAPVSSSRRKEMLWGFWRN
# Text: as §1, §2, §3
# B2 receptor [3] = target: T3, B2 receptor; conditions: vs BK; captopril 1 μmol/L; Inactive = no detectable antagonistic effect at ≦ 10 μg/ml
# human B2 receptor = target: T5, human B2 receptor (Homo sapiens, UniProt P30411); assay: Human umbilical vein bioassay in presence of Lys(Leu8)desArg9BK, B2 receptor; format: cell-based; conditions: vs BK, Lys(Leu8)desArg9BK 1 μmol/L present
# T5 construct: Helical strips of HUV were prepared according to Gobeil et al; from tissue; host or cells: human umbilical vein helical strips
# T5 sequence (P30411 1-391): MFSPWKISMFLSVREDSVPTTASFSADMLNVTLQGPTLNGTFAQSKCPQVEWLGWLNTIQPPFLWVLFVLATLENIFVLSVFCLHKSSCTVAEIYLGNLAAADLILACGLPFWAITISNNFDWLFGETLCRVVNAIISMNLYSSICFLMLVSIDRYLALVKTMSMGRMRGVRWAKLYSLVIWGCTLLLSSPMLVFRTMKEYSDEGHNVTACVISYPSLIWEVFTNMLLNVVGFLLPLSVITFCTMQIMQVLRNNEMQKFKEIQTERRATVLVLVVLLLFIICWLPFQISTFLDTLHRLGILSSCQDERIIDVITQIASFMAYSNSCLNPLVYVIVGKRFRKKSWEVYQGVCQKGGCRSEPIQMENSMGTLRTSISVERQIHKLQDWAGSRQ
# Text: as §1, §2, §3
# [4] = target: T6, angiotensin-converting enzyme (ACE) from rabbit lungs (Oryctolagus cuniculus, UniProt P12822); conditions: after 30 min, same conditions and enzymatic dilution; cited from earlier work
# T6 sequence (P12822 34-1310): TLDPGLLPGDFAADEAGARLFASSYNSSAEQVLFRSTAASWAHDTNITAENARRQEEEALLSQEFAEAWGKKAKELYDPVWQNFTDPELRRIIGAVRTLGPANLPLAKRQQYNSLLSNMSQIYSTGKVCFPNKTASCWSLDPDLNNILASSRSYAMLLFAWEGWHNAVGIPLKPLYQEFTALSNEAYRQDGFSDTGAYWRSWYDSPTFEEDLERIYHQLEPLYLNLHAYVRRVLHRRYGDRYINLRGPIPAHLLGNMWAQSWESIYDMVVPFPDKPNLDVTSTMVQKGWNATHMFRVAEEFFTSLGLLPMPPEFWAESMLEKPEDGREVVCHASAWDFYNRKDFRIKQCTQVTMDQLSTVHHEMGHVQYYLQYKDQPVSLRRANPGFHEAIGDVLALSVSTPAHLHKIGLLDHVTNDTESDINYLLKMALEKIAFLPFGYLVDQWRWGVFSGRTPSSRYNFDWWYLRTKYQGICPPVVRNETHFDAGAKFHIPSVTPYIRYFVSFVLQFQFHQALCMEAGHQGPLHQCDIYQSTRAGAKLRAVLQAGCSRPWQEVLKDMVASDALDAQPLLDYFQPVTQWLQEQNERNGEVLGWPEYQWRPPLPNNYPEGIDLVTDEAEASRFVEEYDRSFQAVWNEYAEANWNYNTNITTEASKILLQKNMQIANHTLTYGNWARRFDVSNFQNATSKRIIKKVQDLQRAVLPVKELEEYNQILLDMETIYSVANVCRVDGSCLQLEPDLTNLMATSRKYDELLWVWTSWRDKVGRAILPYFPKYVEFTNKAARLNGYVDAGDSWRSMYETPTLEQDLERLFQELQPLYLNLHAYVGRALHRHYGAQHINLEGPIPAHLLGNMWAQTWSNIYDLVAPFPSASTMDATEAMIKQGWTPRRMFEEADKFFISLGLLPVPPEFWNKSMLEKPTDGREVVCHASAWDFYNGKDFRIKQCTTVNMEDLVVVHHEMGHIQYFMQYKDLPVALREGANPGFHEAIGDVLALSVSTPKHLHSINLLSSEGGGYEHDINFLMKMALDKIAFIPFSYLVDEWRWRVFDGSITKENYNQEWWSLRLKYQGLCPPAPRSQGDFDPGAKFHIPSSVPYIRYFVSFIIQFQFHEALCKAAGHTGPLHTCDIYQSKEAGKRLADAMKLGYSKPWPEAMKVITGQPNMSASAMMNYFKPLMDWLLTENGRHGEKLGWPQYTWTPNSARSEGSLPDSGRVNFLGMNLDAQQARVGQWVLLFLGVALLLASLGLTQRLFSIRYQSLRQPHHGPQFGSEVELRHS
Compound,"G.P.I. pA2 (B2 receptor [1]; vs BK, Inactive = no detectable antagonistic effect at ≦ 10 μg/ml, F.ag. full agonist, P.ag. partial agonist)",Human umbilical vein B1 receptor α^E (human B1 receptor),Rb.J.V. α^E (B2 receptor [2]),Rb.A. α^E (B1 receptor),Rb.J.V. pA2 (B2 receptor [3]),Human umbilical vein B2 receptor pA2 (human B2 receptor),G.P.I. α^E (B2 receptor [1]; residual agonistic activity at 10 μg/mL in comparison with BK),"Human umbilical vein B1 receptor pA2 (human B1 receptor; vs desArg9BK, HOE140 400 nmol/L present)","Rb.A. pA2 (B1 receptor; apparent affinity as antagonist vs desArg9BK, antagonist applied 10 min before, Inactive = no detectable antagonistic effect at ≦ 10 μg/ml)",Metabolism of naturally-occurring kinins by ACE [4]
"CC[C@H](C)[C@H](NC(=O)[C@@H](Cc1ccc2ccccc2c1)NC(=O)[C@H](CO)NC(=O)[C@H](Cc1ccccc1)NC(=O)CNC(=O)[C@@H]1CCCN1C(=O)[C@@H]1CCCN1C(=O)[C@H](CCCNC(=N)N)NC(=O)[C@H](CCCCN)NC(C)=O)C(=O)O [Compound 19, AcLys(D-βNal^7, Ile^8)desArg^9BK] (Ac-KRPPGFS[d2Nal]I-OH; C-terminus assumed)",P.ag.,0,0.09,0,Inactive,Inactive,–,–,–,–
"D-Arg(Hyp^3, D-Hyp^7(trans thiophenyl), Oic^8)desArg^9BK [Compound 34, reference compound]",–,0,0,0,7.52 ± 0.05,5.12 ± 0.20,0,8.55 ± 0.09,8.27 ± 0.14,–
RPPGFSPFR [BK],–,–,–,–,–,–,–,–,–,fully metabolised

# Source: patent US7041785B1, “B1-bradykinin receptor antagonists and use thereof” (Université de Sherbrooke, priority 1996, dated 2006)
